Key:
NAMPT = NAMPT (Homo sapiens, UniProt P43490); assay: TR-FRET Binding Assay of NAMPT with PRPP; conditions: with 200 μM PRPP and 2.5 mM ATP; 2 nM NAMPT, 2 nM probe, 16 hours equilibration
In short: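 Run in the presence of substrates (200 μM PRPP, 2.5 mM ATP) with final 2 nM NAMPT, 2 nM probe, 1 nM Tb-anti-His antibody and 2% DMSO. Mixtures equilibrated 16 h before TR-FRET measurement so test compounds could be enzymatically modified.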

PC3 cells = assay: NAMPT Cell Proliferation Assay; type: cell-based; conditions: Homo sapiens, PC-3, 120 h, 5 days incubation, cell viability by Cell Titer Glo
In short: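 IC50 values derive from sigmoidal dose-response fits of percent inhibition of PC3 viability, measured by luminescence after 5 days of compound treatment. Cells (500/well, RPMI containing 10% heat-inactivated FBS) are allowed to attach overnight, and compounds are tested at 10-fold dilutions between 10 μM and 1×10^−5 μM.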

[1] = molecular target: NAMPT (human, recombinant, C-terminally His-tagged) (Homo sapiens, UniProt P43490); assay: Time-Resolved Fluorescence Resonance Energy Transfer (TR-FRET) Binding Assay of NAMPT; conditions: without substrates; 6.8 nM NAMPT, 200 nM probe, 3 hours equilibration
Sequence of NAMPT (human, recombinant, C-terminally His-tagged) (P43490 whole entry): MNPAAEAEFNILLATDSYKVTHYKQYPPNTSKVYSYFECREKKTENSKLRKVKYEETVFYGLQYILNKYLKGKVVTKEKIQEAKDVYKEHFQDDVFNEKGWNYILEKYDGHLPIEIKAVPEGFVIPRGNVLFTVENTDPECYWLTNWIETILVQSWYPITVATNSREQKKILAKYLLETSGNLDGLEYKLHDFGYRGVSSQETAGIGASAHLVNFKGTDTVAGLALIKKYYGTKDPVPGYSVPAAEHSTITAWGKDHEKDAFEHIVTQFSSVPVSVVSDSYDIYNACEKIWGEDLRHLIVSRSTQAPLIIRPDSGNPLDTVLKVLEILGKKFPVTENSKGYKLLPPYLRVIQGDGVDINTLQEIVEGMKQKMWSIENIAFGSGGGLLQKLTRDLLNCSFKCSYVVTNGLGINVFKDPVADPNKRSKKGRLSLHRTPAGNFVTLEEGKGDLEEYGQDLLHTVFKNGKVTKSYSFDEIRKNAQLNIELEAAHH
In short: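 Probe displacement by compound was measured with 6.8 nM NAMPT, 200 nM Oregon Green 488-conjugated nicotinamide-competitive inhibitor probe and 1 nM Tb-anti-His antibody in 50 mM HEPES pH 7.5, 100 mM NaCl, 10 mM MgCl2, 1 mM DTT, 1% glycerol, 2% DMSO (final). After 3 h at room temperature, TR-FRET was read; IC50 from four-parameter logistic fit.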

Sequence of NAMPT (P43490 whole entry): as above

Row | IC50 (NAMPT) [nM] | IC50 (PC3 cells) [nM] | IC50 [1] [nM] | SMILES
1 | 0.213 | 13 | 11.3 | CC(C)CCC(=O)Nc1ccc(NC(=O)NCc2ccn3ccnc3c2)cc1 [Example 280, N-(4-{[(imidazo[1,2-a]pyridin-7-ylmethyl)carbamoyl]amino}phenyl)-4-methylpentanamide]
2 | 0.297 | 44.7 | 76.5 | CC(C)OCC(=O)Nc1ccc(NC(=O)NCc2ccn3ccnc3c2)cc1 [Example 282, N-(4-{[(imidazo[1,2-a]pyridin-7-ylmethyl)carbamoyl]amino}phenyl)-2-(propan-2-yloxy)acetamide]
3 | 0.96 | 72.2 | 415 | CC(C)(C)OC(=O)N1CC=C(c2ccc(NC(=O)NCc3ccn4ccnc4c3)c(F)c2)CC1 [Example 290, tert-butyl 4-(3-fluoro-4-{[(imidazo[1,2-a]pyridin-7-ylmethyl)carbamoyl]amino}phenyl)-3,6-dihydropyridine-1(2H)-carboxylate]
4 | 1.15 | 7220 | 1540 | CC(C)(C)OC(=O)Nc1ccc(C(=O)NCc2ccn3ccnc3c2)cc1F [Example 292, tert-butyl {2-fluoro-4-[(imidazo[1,2-a]pyridin-7-ylmethyl)carbamoyl]phenyl}carbamate]
5 | 0.169 | 7.74 | 27.3 | CCCn1cc(-c2ccc(C(=O)NCc3ccn4ccnc4c3)s2)cn1 [Example 293, N-(imidazo[1,2-a]pyridin-7-ylmethyl)-5-(1-propyl-1H-pyrazol-4-yl)thiophene-2-carboxamide]
6 | 0.169 | 1.88 | 44.7 | O=C(NCc1ccn2ccnc2c1)c1ccc(-c2cnn(CCN3CCOCC3)c2)s1 [Example 294, N-(imidazo[1,2-a]pyridin-7-ylmethyl)-5-{1-[2-(morpholin-4-yl)ethyl]-1H-pyrazol-4-yl}thiophene-2-carboxamide]
7 | 0.292 | 24.2 | 56.1 | CCn1cc(-c2ccc(C(=O)NCc3ccn4ccnc4c3)s2)cn1 [Example 295, 5-(1-ethyl-1H-pyrazol-4-yl)-N-(imidazo[1,2-a]pyridin-7-ylmethyl)thiophene-2-carboxamide]
8 | 0.226 | 11.5 | 67 | O=C(NCc1ccn2ccnc2c1)c1ccc(-c2cnn(C3CCS(=O)(=O)C3)c2)s1 (stereo not drawn) [Example 296, 5-[1-(1,1-dioxidotetrahydrothiophen-3-yl)-1H-pyrazol-4-yl]-N-(imidazo[1,2-a]pyridin-7-ylmethyl)thiophene-2-carboxamide]
9 | 0.286 | 35.8 | 177 | O=C(NCc1ccn2ccnc2c1)c1cnc(C2=CCN(C(=O)c3ccccc3)CC2)s1 [Example 297, 2-(1-benzoyl-1,2,3,6-tetrahydropyridin-4-yl)-N-(imidazo[1,2-a]pyridin-7-ylmethyl)-1,3-thiazole-5-carboxamide]
10 | 0.557 | 2370 | 3410 | CC(C)(O)Cn1cc(-c2ccc(C(=O)NCc3ccn4ccnc4c3)cc2)cn1 [Example 298, 4-[1-(2-hydroxy-2-methylpropyl)-1H-pyrazol-4-yl]-N-(imidazo[1,2-a]pyridin-7-ylmethyl)benzamide]
11 | 0.283 | 8640 | 172 | O=C(NCc1ccn2ccnc2c1)c1ccc(-c2ccccc2)s1 [Example 299, N-(imidazo[1,2-a]pyridin-7-ylmethyl)-5-phenylthiophene-2-carboxamide]
12 | 0.169 | 28.7 | 61.4 | CS(=O)(=O)CCn1cc(-c2ccc(C(=O)NCc3ccn4ccnc4c3)s2)cn1 [Example 300, N-(imidazo[1,2-a]pyridin-7-ylmethyl)-5-{1-[2-(methylsulfonyl)ethyl]-1H-pyrazol-4-yl}thiophene-2-carboxamide]
13 | 0.301 | 25.8 | 288 | CC(C)(C)OC(=O)N1CCC(c2ccc(C(=O)NCc3ccn4ccnc4c3)cc2)C1 (stereo not drawn) [Example 301, tert-butyl 3-{4-[(imidazo[1,2-a]pyridin-7-ylmethyl)carbamoyl]phenyl}pyrrolidine-1-carboxylate]
14 | 0.169 | 1.79 | 9.99 | O=C(NCc1ccn2ccnc2c1)Nc1ccc(NS(=O)(=O)c2ccccc2-c2ccccc2)cc1 [Example 303, N-(4-{[(imidazo[1,2-a]pyridin-7-ylmethyl)carbamoyl]amino}phenyl)biphenyl-2-sulfonamide]

Second part, the compound before the results:

Row | SMILES | IC50 (NAMPT) [nM] | IC50 (PC3 cells) [nM] | IC50 [1] [nM]
15 | CC(C)OCC(=O)Nc1ccc(NC(=O)NCc2ccc3nccn3c2)cc1 [Example 276, N-(4-{[(imidazo[1,2-a]pyridin-6-ylmethyl)carbamoyl]amino}phenyl)-2-(propan-2-yloxy)acetamide] | 0.468 | 38.1 | 107
16 | O=C(CC1CCCO1)Nc1ccc(NC(=O)NCc2ccc3nccn3c2)cc1 (stereo not drawn) [Example 277, N-(4-{[(imidazo[1,2-a]pyridin-6-ylmethyl)carbamoyl]amino}phenyl)-2-(tetrahydrofuran-2-yl)acetamide] | 0.667 | 83.2 | 103
17 | O=C(CC1CCOCC1)Nc1ccc(NC(=O)NCc2ccc3nccn3c2)cc1 [Example 278, N-(4-{[(imidazo[1,2-a]pyridin-6-ylmethyl)carbamoyl]amino}phenyl)-2-(tetrahydro-2H-pyran-4-yl)acetamide] | 0.621 | 51.7 | 102
18 | O=C(CCc1ccccc1)Nc1ccc(NC(=O)NCc2ccc3nccn3c2)cc1 [Example 279, N-(4-{[(imidazo[1,2-a]pyridin-6-ylmethyl)carbamoyl]amino}phenyl)-3-phenylpropanamide] | 0.437 | 869 | 68.8
19 | O=C(CCC1CCCC1)Nc1ccc(NC(=O)NCc2ccn3ccnc3c2)cc1 [Example 281, 3-cyclopentyl-N-(4-{[(imidazo[1,2-a]pyridin-7-ylmethyl)carbamoyl]amino}phenyl)propanamide] | 0.214 | 24.8 | 5.5
20 | O=C(CC1CCCO1)Nc1ccc(NC(=O)NCc2ccn3ccnc3c2)cc1 (stereo not drawn) [Example 283, N-(4-{[(imidazo[1,2-a]pyridin-7-ylmethyl)carbamoyl]amino}phenyl)-2-(tetrahydrofuran-2-yl)acetamide] | 0.264 | 145 | 63.2
21 | O=C(CC1CCOCC1)Nc1ccc(NC(=O)NCc2ccn3ccnc3c2)cc1 [Example 284, N-(4-{[(imidazo[1,2-a]pyridin-7-ylmethyl)carbamoyl]amino}phenyl)-2-(tetrahydro-2H-pyran-4-yl)acetamide] | 0.169 | 107 | 7.96
22 | O=C(CCc1ccccc1)Nc1ccc(NC(=O)NCc2ccn3ccnc3c2)cc1 [Example 285, N-(4-{[(imidazo[1,2-a]pyridin-7-ylmethyl)carbamoyl]amino}phenyl)-3-phenylpropanamide] | 0.593 | 301 | 82.6
23 | O=C(NCc1ccn2ccnc2c1)Nc1ccc(C2CCN(C(=O)[C@H]3CCOC3)CC2)cc1 [Example 286, 1-(imidazo[1,2-a]pyridin-7-ylmethyl)-3-(4-{1-[(3S)-tetrahydrofuran-3-ylcarbonyl]piperidin-4-yl}phenyl)urea] | 0.412 | 19.4 | 120
24 | O=C(NCc1ccn2ccnc2c1)Nc1ccc(C2CCN(C(=O)[C@@H]3CCOC3)CC2)cc1 [Example 287, 1-(imidazo[1,2-a]pyridin-7-ylmethyl)-3-(4-{1-[(3R)-tetrahydrofuran-3-ylcarbonyl]piperidin-4-yl}phenyl)urea] | 0.351 | 24.1 | 67.3
25 | O=C(NCc1ccn2ccnc2c1)Nc1ccc(C2CCN(C(=O)[C@@H]3CCCO3)CC2)cc1 [Example 288, 1-(imidazo[1,2-a]pyridin-7-ylmethyl)-3-(4-{1-[(2S)-tetrahydrofuran-2-ylcarbonyl]piperidin-4-yl}phenyl)urea] | 0.568 | 8.11 | 49.5
26 | O=C(NCc1ccn2ccnc2c1)Nc1ccc(C2CCN(C(=O)[C@H]3CCCO3)CC2)cc1 [Example 289, 1-(imidazo[1,2-a]pyridin-7-ylmethyl)-3-(4-{1-[(2R)-tetrahydrofuran-2-ylcarbonyl]piperidin-4-yl}phenyl)urea] | 0.286 | 9.33 | 155
27 | CC(C)(C)OC(=O)N1CC[C@H](Oc2ccc(NC(=O)NCc3ccn4ccnc4c3)cc2)C1 [Example 291, tert-butyl (3S)-3-(4-{[(imidazo[1,2-a]pyridin-7-ylmethyl)carbamoyl]amino}phenoxy)pyrrolidine-1-carboxylate] | 0.449 | 26.1 | 159
28 | CC(C)(C)OC(=O)N1CCC(c2ccc(NC(=O)NCc3ccn4ccnc4c3)cc2)C1 (stereo not drawn) [Example 302, tert-butyl 3-(4-{[(imidazo[1,2-a]pyridin-7-ylmethyl)carbamoyl]amino}phenyl)pyrrolidine-1-carboxylate] | 0.435 | 19.3 | 160

— patent US9187472B2 (AbbVie Inc., priority 2012, dated 2015)
